The values that follow come from ChEMBL document CHEMBL1155076, “Synthesis and pharmacological evaluation of novel gamma-aminobutyric acid type B (GABAB) receptor agonists as gastroesophageal reflux inhibitors” (J Med Chem, 2008).

Molecules are shown by their SMILES. pEC50, pKi: −log10 of the molar value.

Data set [1] is described as follows: Agonist activity at human recombinant GABABreceptor expressed in CHO-K1 cells assessed as inhibition of intracellular calcium release by FLIPR. It is filed as functional, cell-based. On the technique in general: Calcium flux is commonly read through the fluorescence of an indicator in the cells.
The subject of data set [2] is CHO-K1. Put plainly: Intrinsic activity at human recombinant GABAB receptor expressed in CHO-K1 cells assessed as inhibition of intracellular calcium release by FLIPR relative to GABA. Format: cell-based.
Data set [3] is described as follows: Displacement of [3H]GABA from GABABreceptor in rat brain synaptic membranes. Format: cell membranes, Membrane.
The subject of data set [4] is Mus musculus. The data set is described as follows: Toxicity in sc dosed mouse assessed as subcutaneous dose producing 2 degC decrease in body temperature. Conditions: in vivo. Format: organism-based.
Data set [5] can be described thus: Bioavailability in dog. It is filed as ADME, organism-based, Canis lupus familiaris. Conditions: in vivo.
Data set [6] can be described thus: Bioavailability in rat. It is filed as ADME, organism-based. The note with it: in vivo.
For data set [7], the species on record is Canis familiaris. Put plainly: Inhibition of transient lower esophageal sphincter relaxation in dog. It is filed as functional. Conditions: Canis lupus familiaris.

On to `NCC(=O)C[PH](=O)O`, for which, in data set [1], the pEC50 is 7.09. Besides, the Intrinsic activity in data set [2] was determined as 1. The same molecule showed a pKi in data set [3] of 7.32.

For `CP(=O)(O)C[C@@H](F)CN`, in data set [1], the pEC50 is 5.77. Besides, the Intrinsic activity in data set [2] was 1. The same molecule had a pKi in data set [3] of 6.32.

With `NCCC[PH](=O)O`, in data set [1], the pEC50 is 7.72. The Intrinsic activity in data set [2] came out at 1. Besides, in data set [3], the pKi is 7.82.

On to `CP(=O)(O)C[C@H](F)CN`, for which the pEC50 in data set [1] is 7.85. Besides, in data set [2], the Intrinsic activity was 1. In data set [3], this molecule showed a pKi of 8.37.

As for `NC[C@@H](O)C[PH](=O)O`, the pEC50 in data set [1] was 5.96. Also, the Intrinsic activity in data set [2] is 1. For the same molecule, the pKi in data set [3] was 5.68.

For `NCC(O)C[PH](=O)O` (stereo not given), the pEC50 in data set [1] was 6.66. Also, the Intrinsic activity in data set [2] turned out to be 1. In addition, the pKi in data set [3] is 7.03.

With `NC[C@H](O)C[PH](=O)O`, the pEC50 in data set [1] was 6.89. Also, the Intrinsic activity in data set [2] was 1. For the same molecule, the Activity in data set [4] was greater than 8000 µmol/kg. In addition, the bioavailability in data set [5] amounted to 88%; in data set [6] it was 78%. In addition, the pKi in data set [3] was 7.30. For the same molecule, in data set [7], the ED50 stood at 7 µmol/kg.

Regarding `CP(=O)(O)CC(F)CN` (stereo not given), in data set [1], the pEC50 is 7.64. Further, in data set [2], the Intrinsic activity is 1. The same molecule had a pKi in data set [3] of 7.85.

Consider `CP(=O)(O)C[C@H](O)CN`, for which the pEC50 in data set [1] is 6.22. In addition, the Intrinsic activity in data set [2] was 1. Moreover, the pKi in data set [3] was 6.08.

Turning to `CP(=O)(O)C[C@@H](O)CN`, in data set [1], the negative logarithm of the EC50 (pEC50) was 6.82. Also, in data set [2], the Intrinsic activity was found to be 1. Moreover, the Activity in data set [4] stood at 5.4 µmol/kg. Moreover, in data set [3], the pKi is 6.74. In data set [7], this molecule showed an ED50 of 0.17 µmol/kg.

As for `NCC(F)C[PH](=O)O` (stereo not given), in data set [1], the pEC50 was 7.82. Also, in data set [2], the Intrinsic activity stood at 1. The negative-log Ki (pKi) in data set [3] is 8.00.

`CP(=O)(O)CC(=O)CN`: the pEC50 in data set [1] is 6.57. Also, the Intrinsic activity in data set [2] worked out at 1. In data set [3], the pKi is 6.70.

Regarding `NCC(CC(=O)O)c1ccc(Cl)cc1` (stereo not given), the Intrinsic activity in data set [2] worked out at 1.

On to `NC[C@@H](F)C[PH](=O)O` [LESOGABERAN], for which the pEC50 in data set [1] was 8.06. In addition, the Intrinsic activity in data set [2] was determined as 1. This molecule showed a pKi in data set [3] of 8.29.

Regarding `CP(=O)(O)CCCN`, the Intrinsic activity in data set [2] amounted to 1.

As to `NC[C@H](F)C[PH](=O)O`, the pEC50 in data set [1] is 6.60. Further, in data set [2], the Intrinsic activity is 1. The molecule further showed a pKi in data set [3] of 7.15.

By pEC50 is commonly meant the negative decadic logarithm of the EC50, by convention in mol/L. For orientation: pKi means −log10 of the Ki, conventionally taken in molar units. Usually bioavailability stands for the share of a dose that reaches the circulation, judged against a reference dose that is usually intravenous. A lower bioavailability goes with little systemic uptake. The term ED50 denotes the dose at which the effect has come halfway, by size or by number of responders.
